Results taken from publication PMC8582824, “Targeting DDX3X Helicase Activity with BA103 Shows Promising Therapeutic Effects in Preclinical Glioblastoma Models” (Cancers, 2021).

Assays:
Format in all cases: cell-based
[1] = system: U87 and U251 cells; test: Transwell migration assay in GBM cells; details: 48 h of incubation, vs untreated cells
Protocol: Exponential growing cells were treated with the inhibitor or vehicle for 48 h and then trypsinized, washed twice with PBS, rinsed in complete medium, incubated at 37 °C for 30 min to reconstitute the membrane structures, washed again for FCS removal, and then added to the upper compartment of collagen-coated (PTFE) Transwell insert (Corning Inc., Corning, NY, USA). Cells were allowed to migrate through coated filters for 6 h. The cells attached on the lower membrane surfaces were stained with 0.1% crystal violet w/v in 0.1 mol/L borate, pH 9.0, and 2% ethanol v/v for 20 min at room temperature. Cells were counted at 400× magnification in standard optical microscopy, and the average number of cells per field in 5 random fields was recorded. Triplicate filters were used, and the experiments were repeated at least two times.
(§1) To better characterize the antiproliferative effect of BA103, we performed further biological evaluation using GBM cell lines. The expression of DDX3X was evaluated in U87 and U251 cell lines by Western blot analysis in comparison with HepG2 cells, resulting in basally detectable mainly in U87 cells (Figure 6A). […] Thus, also according to the importance of β-catenin signaling in GBM, we analyzed whether the expression of β-catenin in U87 and U251 cells could be associated with DDX3X activity. […]

[2] = system: DDX3X; test: DDX3X protein expression by Western blot in GBM cells; details: 24 h of treatment
Protocol: Cells were incubated for 15 min in lysis buffer containing 1% triton, 0.1% SDS, 2 mmol/L CaCl2, 10 mg/mL orthovanadate, and 1× protease inhibitors cocktail (Sigma-Aldrich, St. Louis, MO, USA). Forty micrograms of proteins were electrophoresed in 12% SDS-polyacrylamide gel, and then, the gel was placed onto a Trans-Blot Turbo mini nitrocellulose transfer pack and transferred using a Trans-Blot Turbo Transfer System (Bio-Rad Laboratories, Hercules, CA, USA). The membrane was incubated with […] primary antibody and then with […] horseradish peroxidase (HRP)-conjugated secondary antibodies (Santa Cruz Biotechnology, Dallas, TX, USA). […]
as §1, with “activity. GBM cells were treated with BA103 for 48 h, and then, β-catenin expression was evaluated by Western blot analysis and immunofluorescence analysis (Figure 7A,B, respectively).” for “activity.”

[3] = system: A549, MDA-MB-231, HCT-116, U2OS, RD18, DBTRG, U87, U251 and DAOY cancer cell lines; test: Cytotoxicity on additional cancer cell lines; details: 72 h
Protocol: For CellTiter 96® Aqueous One Solution Cell Proliferation Assay (MTS) (Promega, Madison, WI, USA), cells were seeded at 5 × 10^3 per well in 96-well plates in quadruplicate together a control with no cells to evaluate the background. After 24 h, the culture medium was removed, and fresh medium containing increasing concentrations of chemical compounds was added to cells. The fixed final concentrations were 0.1 μM, 1 μM, 10 μM, and 100 μM. DMSO was the vehicle used for dilution of the compounds, and its final concentration on cells was less than 0.2%. Medium-only containing wells were included as controls. […] After 3 h at 37 °C in a humidified, 5% CO2 atmosphere, the absorbance at 492 nm was recorded using an EZREAD400 (Biochrom, Cambridge, United Kingdom) plate reader. The average 490 nm absorbance from the “no cell” control wells was subtracted from all other values to yield background-corrected absorbance. Dose–response curves and CC50 values have been calculated by plotting the absorbance data as a function of inhibitor concentrations and fitting the data by least-squares nonlinear regression, according to the method of Marquardt–Levenberg, with the computer program GraphPad Prism 6.0.
Cells were incubated with a scalar concentration of DDX3X inhibitors, and after 72 h of treatment, cell viability was assessed by cytotoxicity assay. […]

CCCCc1cn(-c2ccc(NC(=O)Nc3ccccc3C(F)(F)F)cc2)nn1 [BA103, 1-(4-(4-Butyl-1H-1,2,3-triazol-1-yl)phenyl)-3-(2-(trifluoromethyl)phenyl)urea]
migration through collagen-coated Transwell filters [1]: reduced ability to migrate | expression of DDX3X [2]: reduction in the expression of DDX3X | CC50s against the additional cell lines [3]: micromolar CC50s
